Patent publication US7517889B2, “2,6-substituted-4-monosubstitutedamino-pyrimidine as prostaglandin D2 receptor antagonists” (Aventis Pharmaceuticals, Inc., priority 2004, dated 2009)
Structures can show the parent of a compound that is named as a salt.

The compounds below were run against T1, DP receptor (Homo sapiens, UniProt Q13258) (assay: SPA cAMP assay in human LS174 T cells (human DP functional assay)). Conditions: inhibition of PGD2 (15 nM final) stimulated cAMP, LS174T cells expressing endogenous DP receptor.
T1 construct: the human cell line LS174T, which expresses the endogenous DP receptor; endogenous in cells; host or cells: LS174T human cell line
T1 sequence (Q13258 1-359): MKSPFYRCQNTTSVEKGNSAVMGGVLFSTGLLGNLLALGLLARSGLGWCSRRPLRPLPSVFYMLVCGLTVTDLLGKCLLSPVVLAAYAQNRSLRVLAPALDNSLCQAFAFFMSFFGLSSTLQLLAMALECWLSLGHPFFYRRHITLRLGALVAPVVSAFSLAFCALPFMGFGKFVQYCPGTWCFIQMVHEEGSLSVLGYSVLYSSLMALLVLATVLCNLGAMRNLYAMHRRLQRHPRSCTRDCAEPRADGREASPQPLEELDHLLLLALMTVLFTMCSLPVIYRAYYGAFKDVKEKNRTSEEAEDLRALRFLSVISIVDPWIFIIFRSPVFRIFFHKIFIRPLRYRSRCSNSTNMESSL
Type: cell-based
Protocol: The inhibitory effects of the compounds according to the invention are assessed in a human DP functional assay. A cAMP assay is employed using the human cell line LS174T, which expresses the endogenous DP receptor.
Protocol for SPA cAMP Assay in Human LS174 T Cells
• 1) Add equal volumes of tracer, antiserum and SPA anti-rabbit reagent to a bottle, ensuring that a sufficient volume of this mixture is prepared for the desired number of wells (150 μL/well). • 2) Mix thoroughly. • 3) This immunoreagent solution should be freshly prepared before each assay and not re-used.
Add 50 μL of […] IBMX into 100 mL PBS to make a final concentration of 100 μM and sonicate at 30° C. for 20 minutes.
Before each assay, it is freshly prepared. Add 3 μL of 10 mM stock solution to 20 mL DMSO, mix it thoroughly, and transfer 10 mL to 40 mL PBS.
Compound dilution is carried out in Biomex 2000 (Beckman) using Method 1_cAMP DP 11 points.
5 μL of each compound from the 10 mM stock compound plates is transferred to the wells of a 96-well plate respectively as below.
Fill the plate with 45 μL of DMSO except column 7 is filled with 28 μL DMSO. Pipette column 1 thoroughly, and transfer 12 μL into column 7 parallel. Perform 1:10 serial dilution from column 1 to column 6 and from column 7 to column 11 by transfer 5 μL to 45 μL DMSO to make following concentrations:
Fill a new 96-well plate with 247.5 μL of compound dilution buffer. Transfer 2.5 μL of serially diluted compounds from above plate to the new plate (1:100 dilution) as following:
Cell Growth • 1. […] Remove growth medium from cells. Cells in T165 flask are washed twice with 4 mL Trypsin followed by incubation at 37° C. and 5% CO2 for 3 minutes. • 4. Add 10 mL of medium and pipette thoroughly to separate the cells and count the cells. • 5. […] Assay Procedure Day 1 • Seed 45,000 cells/well in 200 μL medium in 96-well plates. Incubate the cell plate at 37° C., 5% CO2 and 95% humidity overnight. Day 2 • 1. Perform compound dilution. • 2. Prepare assay buffer, lysis buffer 1 & 2, PGD2 and standard. • 3. Aspirate media from the cells and add 100 μL of compound solution using Zymark Sciclone-ALH/FD protocol cAMP DP. • 4. Incubate the cells at 37° C., 5% CO2 and 95% humidity for 15 minutes. • 5. […] Aspirate media from the cells and add 50 μL of lysis buffer 1 using Zymark protocol cAMP DP lysis, and incubate at room temperature with shaking for 30 minutes. • 7. Add 150 μL immunoreagent to all wells (a total volume of 200 μL/well). • 8. Seal the plates and shake for 2 minutes, put into the chamber of the Wallac microtitre plate μ scintillation counter for 16 hours. […] Data Processing Set up standard curve of cAMP versus CPM.
The cAMP concentrations (pmol/mL) of unknown samples are calculated from a standard curve of cAMP versus CPM. % inhibition is calculated using the following formula: […]

Compound	IC50 [nM]
COc1nc(NCCc2ccc(Cl)cc2Cl)cc(-c2cccc(C(C)(C)C(=O)OCC(O)CO)c2)n1 (stereo not drawn) [Example 89, 2-(3-{6-[2-(2,4-Dichloro-phenyl)-ethylamino]-2-methoxy-pyrimidin-4-yl}-phenyl)-2-methyl-propionic acid 2,3-dihydroxy-propyl ester]	18
COc1nc(NCCc2c(F)cccc2Cl)cc(-c2ccc(=O)n(CC(=O)O)c2)n1 [Example 23(c), (5-{6-[2-(2-Chloro-6-fluoro-phenyl)-ethylamino]-2-methoxy-pyrimidin-4-yl}-2-oxo-2H-pyridin-1-yl)-acetic acid]	0.3
COc1nc(NCCc2ccc(Cl)cc2Cl)cc(-c2cccc(C(C)(C)c3nnn[nH]3)c2)n1 [Example 47, hydrochloride]	0.4
COc1nc(NCCc2ccc(OC(F)(F)F)cc2)cc(-c2ccc(F)c(C(C)(C)C(=O)O)c2)n1 [Example 70, 2-(2-Fluoro-5-{2-methoxy-6-[2-(4-trifluoromethoxy-phenyl)-ethylamino]-pyrimidin-4-yl}-phenyl)-2-methyl-propionic acid]	193
COC(=O)c1cccc(Oc2cc(NCCc3ccc(OC)c(OC)c3)nc(OC)n2)c1 [Example (63), 3-{6-[2-(3,4-dimethoxy-phenyl)-ethylamino]-2-methoxy-pyrimidin-4-yloxy}-benzoic acid methyl ester]	6250
CCOc1nc(NCCc2ccc(OC)c(OC)c2)cc(-c2ccc(OC)c(OC)c2)n1 [Example 17(b), [6-(3,4-Dimethoxy-phenyl)-2-ethoxy-pyrimidin-4-yl]-[2-(3,4-dimethoxy-phenyl)-ethyl]-amine]	655
CCS(=O)(=O)NC(=O)C(F)(F)c1cccc(-c2cc(NCCc3ccc(Cl)cc3Cl)nc(OC)n2)c1 [Example 81(b), Ethanesulfonic acid [2-(3-{6-[2-(2,4-dichloro-phenyl)-ethylamino]-2-methoxy-pyrimidin-4-yl}-phenyl)-2,2-difluoro-acetyl]-amide]	0.1
COc1nc(NCCc2c(F)cccc2Cl)cc(-c2ccc(=O)n(Cc3n[nH]c(=O)o3)c2)n1 [Example 33, 5-{6-[2-(2-Chloro-6-fluoro-phenyl)-ethylamino]-2-methoxy-pyrimidin-4-yl}-1-(5-oxo-4,5-dihydro-[1,3,4]oxadiazol-2-ylmethyl)-1H-pyridin-2-one]	1.2
COc1nc(NCCc2ccc(Cl)cc2Cl)cc(-c2cc(C(C)(C)C(=O)O)ccc2F)n1 [Example 99, 2-(3-{6-[2-(2,4-Dichloro-phenyl)-ethylamino]-2-methoxy-pyrimidin-4-yl}-4-fluoro-phenyl)-2-methyl-propionic acid hydrochloride]	0.5
COc1nc(NCC2CN(C)c3ccccc3O2)cc(-c2cccc(C(C)(C)C(=O)O)c2)n1 (stereo not drawn) [Example 92, 2-(3-{2-Methoxy-6-[(4-methyl-3,4-dihydro-2H-benzo[1,4]oxazin-2-ylmethyl)-amino]-pyrimidin-4-yl}-phenyl)-2-methyl-propionic acid]	278
COc1nc(NCCc2ccc(OC)c(OC)c2)cc(-c2cccc(C(=O)NCCN3CCCC3)c2)n1 [Example 25(b), 3-{6-[2-(3,4-Dimethoxy-phenyl)-ethylamino]-2-methoxy-pyrimidin-4-yl}-N-(2-pyrrolidin-1-yl-ethyl)-benzamide]	30
CCOC(=O)c1cccc(-c2cc(NCCc3ccc(Cl)cc3Cl)nc(OC)n2)c1 [Example 77, 3-{6-[2-(2,4-Dichloro-phenyl)-ethylamino]-2-methoxy-pyrimidin-4-yl}-benzoic acid ethyl ester]	149
COc1nc(NCCc2ccc(Cl)cc2Cl)cc(-c2ccc(C(=O)O)s2)n1 [Example 87, 5-{6-[2-(2,4-Dichloro-phenyl)-ethylamino]-2-methoxy-pyrimidin-4-yl}-thiophene-2-carboxylic acid]	0.16

The next lines start with the values.

IC50 [nM]	Compound
6.3	COc1ccc(CCNc2cc(-c3ccc(C(C)=O)cc3)nc(OC)n2)cc1 [Example 10(h), 1-(4-{2-Methoxy-6-[2-(4-methoxy-phenyl)-ethylamino]-pyrimidin-4-yl}-phenyl)-ethanone]
0.6	COC(=O)COc1cccc(-c2cc(NCCc3ccc(Cl)cc3Cl)nc(OC)n2)c1 [Example 22(c), (3-{6-[2-(2,4-Dichloro-phenyl)-ethylamino]-2-methoxy-pyrimidin-4-yl}-phenoxy)-acetic acid methyl ester]
256	COc1nc(NCCc2ccc(OC)c(OC)c2)cc(-c2ccco2)n1 [Example 35(d), [2-(3,4-Dimethoxy-phenyl)-ethyl]-(6-furan-2-yl-2-methoxy-pyrimidin-4-yl)-amine]
0.55	COc1ccc(CCNc2cc(-c3ccc(CO)s3)nc(OC)n2)cc1 [Example 9(a), (5-{2-Methoxy-6-[2-(4-methoxy-phenyl)-ethylamino]-pyrimidin-4-yl}-thiophen-2-yl)-methanol]
0.4	COc1nc(NCCc2ccc(OC)c(F)c2)cc(-c2cccc(-c3nn[nH]n3)c2)n1 [Example 40, [2-(3-Fluoro-4-methoxy-phenyl)-ethyl]-{2-methoxy-6-[3-(2H-tetrazol-5-yl)-phenyl]-pyrimidin-4-yl}-amine]
13	COc1ccc(CCNc2cc(-c3ccc4c(c3)CCO4)nc(OC)n2)cc1 [Example 10(j), [6-(2,3-Dihydro-benzofuran-5-yl)-2-methoxy-pyrimidin-4-yl]-[2-(4-methoxy-phenyl)-ethyl]-amine]
8	COc1ccc(CCNc2cc(-c3ccncc3)nc(OC)n2)cc1 [Example 35(q), [2-(4-Methoxy-phenyl)-ethyl]-(2-methoxy-6-pyridin-4-yl-pyrimidin-4-yl)-amine]
0.6	COc1ccc(CCNc2cc(-c3ccc(C=O)s3)nc(OC)n2)cc1 [Example 8(b), 5-{2-methoxy-6-[2-(4-methoxy-phenyl)-ethylamino]-pyrimidin-4-yl}-thiophene-2-carbaldehyde]
248	COc1cccc(-c2cc(NCCc3cccnc3)nc(OC)n2)c1 [Example 43(i), [2-Methoxy-6-(3-methoxy-phenyl)-pyrimidin-4-yl]-(2-pyridin-3-yl-ethyl)-amine hydrochloride]
4	COc1nc(NCCc2ccc(OC(F)F)cc2)cc(-c2cccc(NC(C)=O)c2)n1 [Example 46(c), N-(3-{6-[2-(4-Difluoromethoxy-phenyl)-ethylamino]-2-methoxy-pyrimidin-4-yl}-phenyl)-acetamide hydrochloride]
0.9	COc1ccc(CCNc2cc(-c3cccc(C#N)c3)nc(OC)n2)cc1 [Example 35(t), 3-{2-Methoxy-6-[2-(4-methoxy-phenyl)-ethylamino]-pyrimidin-4-yl}-benzonitrile]
0.6	COc1nc(NCCc2ccc(Cl)cc2)cc(-c2cccc(C(=O)O)c2)n1 [Example 35(n), 3-{6-[2-(4-chlorophenyl)-ethylamino]-2-methoxy-pyrimidin-4-yl}-benzoic acid hydrochloride]
2.3	COc1ccc(CCNc2cc(-c3ccc(C(N)=O)cc3)nc(OC)n2)cc1 [Example 10(e), 4-{2-Methoxy-6-[2-(4-methoxy-phenyl)-ethylamino]-pyrimidin-4-yl}-benzamide]
104	COc1cccc(-c2cc(NCCc3c[nH]c4cc(OC)ccc34)nc(OC)n2)c1 [Example 43(g), [2-(6-Methoxy-1H-indol-3-yl)-ethyl]-[2-methoxy-6-(3-methoxy-phenyl)-pyrimidin-4-yl]-amine hydrochloride]
